The record followed here is PMC9017309, “Triazolopyrimidines Target Aerobic Respiration in Mycobacterium tuberculosis” (Antimicrobial Agents and Chemotherapy, 2022).

Values after ≈ are worked out from the molar mass of the structure shown. Read-outs that look alike come from different tables or passages of the source.

Assay [1] concerns M. tuberculosis H37Rv-LP MmpL3 F255L. Type of assay: cell-based, Mycobacterium tuberculosis.
Assay [2] concerns M. tuberculosis H37Rv-LP QcrB A396T. Type of assay: cell-based, Mycobacterium tuberculosis.
In assay [3] the test system is M. tuberculosis H37Rv-LP DprE1 C387S. Type of assay: cell-based, Mycobacterium tuberculosis.
The test system of assay [4] is M. tuberculosis H37Rv ATCC 26518 QcrBM342T. Type of assay: cell-based, Mycobacterium tuberculosis.
Assay [5] relates to M. tuberculosis resistant isolates LP-0497553-RM. In words: microbe, parasite or virus in culture. Type of assay: cell-based, Mycobacterium tuberculosis. To be noted: for MIC: Mycobacterium tuberculosis, 504 h, 24-well agar plates, 3 weeks.
For assay [6], the system named is M. tuberculosis H37Rv ATCC 26518 QcrBT313I. Type of assay: cell-based, Mycobacterium tuberculosis.
Assay [7] deals with M. tuberculosis H37Rv ATCC 27294 cydKO. In words: microbe, parasite or virus in culture. Type of assay: cell-based. To be noted: Mycobacterium tuberculosis, 120 h, read-out: MIC, H37Rv ATCC 27294 cydKO.
Assay [8] relates to M. tuberculosis resistant isolates LP-0499227-RM. Type of assay: cell-based, Mycobacterium tuberculosis.

Consider `COc1ccc(CCNc2cc(-c3ccccc3)nc3ncnn23)cc1` [TPN-0006218], for which the “MIC, MmpL3 F255L” value in assay [1] is 2 ± 0.99 µM (≈ 0.691 µg/mL). Further, in assay [2], the “MIC, QcrB A396T” value stood at 6.8 ± 2.8 µM (≈ 2.35 µg/mL). In addition, in assay [3], the “MIC, DprE1 C387S” value was determined as 0.94 ± 0.67 µM (≈ 0.325 µg/mL).

For the compound `COc1ccc(CCNc2cc(-c3ccccn3)nc3ncnn23)cc1` [TPN-0006239], in assay [1], the “MIC, MmpL3 F255L” value was determined as 0.86 ± 0.21 µM (≈ 0.298 µg/mL). In addition, the “MIC, H37Rv ATCC 26518 QcrBM342T” value in assay [4] amounted to 11 µM (≈ 3.81 µg/mL). Moreover, in assay [5], the “MIC on solid medium, LP-0497553-RM1” value is 25 µM (≈ 8.66 µg/mL); the “MIC on solid medium, LP-0497553-RM2” value stood at 25 µM (≈ 8.66 µg/mL); the “MIC on solid medium, LP-0497553-RM4” value was determined as 50 µM (≈ 17.3 µg/mL); the “MIC on solid medium, LP-0497553-RM5” value worked out at 50 µM (≈ 17.3 µg/mL). In assay [5], the “MIC on solid medium, LP-0497553-RM10” value worked out at 50 µM (≈ 17.3 µg/mL); the “MIC on solid medium, LP-0497553-RM11” value turned out to be 50 µM (≈ 17.3 µg/mL); the “MIC on solid medium, LP-0497553-RM15” value was 50 µM (≈ 17.3 µg/mL). For the same compound, the MIC in assay [5] (read-out: MIC on solid medium, LP-0497553-RM14) was determined as 50 µM (≈ 17.3 µg/mL). The MIC in assay [5] (read-out: MIC on solid medium, LP-0497553-RM23) turned out to be 50 µM (≈ 17.3 µg/mL). Further, in assay [2], the “MIC, QcrB A396T” value was found to be 3.4 ± 0.28 µM (≈ 1.18 µg/mL). For the same compound, in assay [6], the “MIC, H37Rv ATCC 26518 QcrBT313I” value was above 20 µM. In addition, the MIC in assay [7] turned out to be 0.13 ± 0.007 µM (≈ 0.045 µg/mL). Moreover, the “MIC, DprE1 C387S” value in assay [3] worked out at 0.42 ± 0.07 µM (≈ 0.145 µg/mL).

With `FC(F)(F)c1ccc(CCNc2cc(-c3ccccc3)nc3ncnn23)cc1` [TPN-0006243], in assay [1], the “MIC, MmpL3 F255L” value was determined as 2.7 ± 2.4 µM (≈ 1.04 µg/mL). For the same compound, the “MIC, H37Rv ATCC 26518 QcrBM342T” value in assay [4] was above 20 µM. For the same compound, the “MIC, QcrB A396T” value in assay [2] worked out at 5.7 ± 2.1 µM (≈ 2.19 µg/mL). The “MIC, H37Rv ATCC 26518 QcrBT313I” value in assay [6] was above 20 µM. For the same compound, in assay [7], the MIC was below 0.39 µM. In assay [3], the “MIC, DprE1 C387S” value was 0.95 ± 0.29 µM (≈ 0.364 µg/mL).

As to `Cc1ccc(CCNc2cc(-c3ccccc3)nc3ncnn23)cc1` [TPN-0006245], in assay [1], the “MIC, MmpL3 F255L” value worked out at 2 ± 0.07 µM (≈ 0.659 µg/mL). Also, the “MIC, H37Rv ATCC 26518 QcrBM342T” value in assay [4] was above 20 µM. The “MIC, QcrB A396T” value in assay [2] stood at 5.6 ± 2.5 µM (≈ 1.84 µg/mL). In addition, the “MIC, H37Rv ATCC 26518 QcrBT313I” value in assay [6] is above 20 µM. Besides, the “MIC, DprE1 C387S” value in assay [3] came out at 0.92 ± 0.3 µM (≈ 0.303 µg/mL).

With `FC(F)(F)c1ccc(CCNc2cc(-c3ccccn3)nc3ncnn23)cc1` [TPN-0006267], the “MIC, MmpL3 F255L” value in assay [1] turned out to be 1.8 ± 0.57 µM (≈ 0.692 µg/mL). The “MIC, H37Rv ATCC 26518 QcrBM342T” value in assay [4] stood at 10 µM (≈ 3.84 µg/mL). In addition, the “MIC, QcrB A396T” value in assay [2] stood at 5.9 ± 3.5 µM (≈ 2.27 µg/mL). The “MIC, H37Rv ATCC 26518 QcrBT313I” value in assay [6] is above 20 µM. The “MIC, DprE1 C387S” value in assay [3] amounted to 0.66 ± 0.01 µM (≈ 0.254 µg/mL). In addition, in assay [8], the “MIC on solid medium, LP-0499227-RM1” value is above 100 µM; the “MIC on solid medium, LP-0499227-RM2” value was above 100 µM; the “MIC on solid medium, LP-0499227-RM3” value was above 100 µM; the “MIC on solid medium, LP-0499227-RM4” value was 25 µM (≈ 9.61 µg/mL). Further, the “MIC on solid medium, LP-0499227-RM7” value in assay [8] was above 100 µM.
